From ChEMBL document CHEMBL1201862, “PubChem BioAssay data set” (2004)
Activity calls are given as the source filed them.

How the values were obtained:
[1] = target: T1, Carboxy-terminal domain RNA polymerase II polypeptide A small phosphatase 1 (Homo sapiens, UniProt Q9GZU7); assay: inhibitors of CTDSP1, concentration-response testing, biochemical assay, absorbance-based, actives from ultra-high-throughput screening (AID 540297); format: functional
T1 sequence (Q9GZU7 whole entry): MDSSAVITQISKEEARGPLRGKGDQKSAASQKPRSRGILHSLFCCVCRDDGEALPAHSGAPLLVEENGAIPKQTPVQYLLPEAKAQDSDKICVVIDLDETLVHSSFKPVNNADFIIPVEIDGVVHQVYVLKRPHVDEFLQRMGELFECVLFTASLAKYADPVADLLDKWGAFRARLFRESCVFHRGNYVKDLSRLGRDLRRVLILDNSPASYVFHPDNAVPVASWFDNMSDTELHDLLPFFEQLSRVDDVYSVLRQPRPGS

[2] = system: HEK293; assay: cells; format: functional, cell-based; details: Homo sapiens
[3] = system: BJ; assay: cytotoxicity toward BJ-TERT-LT-ST fibroblasts, dose response, cell-based, RAS-independent, luminescence (AID 1935); format: functional; details: Homo sapiens;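 also: BJ fibroblasts immortalized with TERT plus LT and ST oncogenes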
[4] = cytotoxicity toward DRD oncogenic fibroblasts, dose response, cell-based, non-viral oncogenic, luminescence (AID 1934); format: functional; details: Homo sapiens
[5] = system: HEK293; assay: cells; format: functional, cell-based; details: Homo sapiens; remark: listed apart in the source
[6] = microbe, parasite or virus in culture; format: functional; details: Mycobacterium tuberculosis
[7] = system: HEK293; assay: NOD2 signaling inhibitors in MDP-stimulated cells, cell-based, uHTS, luminescence (AID 2001); format: functional; details: Homo sapiens
[8] = system: BJ; assay: cytotoxicity toward BJ-TERT fibroblasts, dose response, cell-based, RAS-independent, luminescence (AID 1933); format: functional; details: Homo sapiens
[9] = system: HEK293; assay: NOD1 signaling inhibitors, primary screen, cell-based, luminescence, uHTS (AID 1578); format: functional; details: Homo sapiens
[10] = system: BJ; assay: cells; format: functional, cell-based; details: Homo sapiens
[11] = target: DNA dC->dU-editing enzyme APOBEC-3G (Homo sapiens, UniProt Q9HC16); assay: Dose Response confirmation of small molecule APOBEC3G DNA Deaminase Inhibitors via a fluorescence-based single-stranded DNA deaminase assay. [Related pubchem assays (depositor defined):AID493012, AID493028]; format: functional
[12] = A cytotoxicity screen of small molecule inhibitors of the PhoP region in Salmonella typhi identified in the primary screen. [Related pubchem assays: 1850, 1864, 1985 ]; format: functional
[13] = target: T2, Corticotropin-releasing factor receptor 2/Corticotropin-releasing factor-binding protein (Homo sapiens, UniProt P24387+Q13324); assay: activators of CRF receptor 2 with binding protein – uHTS hits, confirmation (AID 602473); format: functional; details: read-out: EC50_Mean
T2 sequence (Q13324 whole entry): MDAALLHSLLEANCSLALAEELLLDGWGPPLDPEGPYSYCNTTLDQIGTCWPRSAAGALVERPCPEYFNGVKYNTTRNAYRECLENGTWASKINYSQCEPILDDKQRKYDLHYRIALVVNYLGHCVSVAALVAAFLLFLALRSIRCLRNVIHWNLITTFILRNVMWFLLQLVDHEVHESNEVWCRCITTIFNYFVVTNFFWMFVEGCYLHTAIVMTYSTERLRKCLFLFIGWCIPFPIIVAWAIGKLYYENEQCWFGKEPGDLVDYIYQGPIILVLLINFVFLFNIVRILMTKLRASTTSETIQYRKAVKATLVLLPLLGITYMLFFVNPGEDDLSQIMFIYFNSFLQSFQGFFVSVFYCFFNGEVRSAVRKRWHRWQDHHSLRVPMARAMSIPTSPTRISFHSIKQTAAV
T2 sequence (P24387 whole entry): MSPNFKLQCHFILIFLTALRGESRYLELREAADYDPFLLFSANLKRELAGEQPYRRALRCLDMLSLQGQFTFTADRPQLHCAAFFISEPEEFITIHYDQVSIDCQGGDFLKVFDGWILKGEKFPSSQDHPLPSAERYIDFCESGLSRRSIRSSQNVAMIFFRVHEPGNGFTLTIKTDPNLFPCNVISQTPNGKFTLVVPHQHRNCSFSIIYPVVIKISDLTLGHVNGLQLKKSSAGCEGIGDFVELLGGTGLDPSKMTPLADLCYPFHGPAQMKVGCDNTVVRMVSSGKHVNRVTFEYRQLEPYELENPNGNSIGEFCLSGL

[14] = CRF-BP/CRF-R2 complex antagonists, dose response, cell-based, uHTS hits, 384-well (AID 651639); format: functional, Homo sapiens; details: read-out: IC50_Mean
[15] = target: T2, Corticotropin-releasing factor receptor 2/Corticotropin-releasing factor-binding protein; assay: Dose Response confirmation of uHTS hits for small molecule antagonists of the CRF-binding protein and CRF-R2 receptor complex.; format: functional; details: read-out: IC50_Mean
[16] = target: T3, Short transient receptor potential channel 4 (Mus musculus, UniProt Q9QUQ5); assay: mouse TRPC4 channel inhibitors, dose response, cell-based, HEK293 TRPC4/mu-opioid, Fluo-4 calcium (AID 434942); format: functional;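 also: potency of inhibitors blocking the TRPC4 calcium response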
T3 sequence (Q9QUQ5 whole entry): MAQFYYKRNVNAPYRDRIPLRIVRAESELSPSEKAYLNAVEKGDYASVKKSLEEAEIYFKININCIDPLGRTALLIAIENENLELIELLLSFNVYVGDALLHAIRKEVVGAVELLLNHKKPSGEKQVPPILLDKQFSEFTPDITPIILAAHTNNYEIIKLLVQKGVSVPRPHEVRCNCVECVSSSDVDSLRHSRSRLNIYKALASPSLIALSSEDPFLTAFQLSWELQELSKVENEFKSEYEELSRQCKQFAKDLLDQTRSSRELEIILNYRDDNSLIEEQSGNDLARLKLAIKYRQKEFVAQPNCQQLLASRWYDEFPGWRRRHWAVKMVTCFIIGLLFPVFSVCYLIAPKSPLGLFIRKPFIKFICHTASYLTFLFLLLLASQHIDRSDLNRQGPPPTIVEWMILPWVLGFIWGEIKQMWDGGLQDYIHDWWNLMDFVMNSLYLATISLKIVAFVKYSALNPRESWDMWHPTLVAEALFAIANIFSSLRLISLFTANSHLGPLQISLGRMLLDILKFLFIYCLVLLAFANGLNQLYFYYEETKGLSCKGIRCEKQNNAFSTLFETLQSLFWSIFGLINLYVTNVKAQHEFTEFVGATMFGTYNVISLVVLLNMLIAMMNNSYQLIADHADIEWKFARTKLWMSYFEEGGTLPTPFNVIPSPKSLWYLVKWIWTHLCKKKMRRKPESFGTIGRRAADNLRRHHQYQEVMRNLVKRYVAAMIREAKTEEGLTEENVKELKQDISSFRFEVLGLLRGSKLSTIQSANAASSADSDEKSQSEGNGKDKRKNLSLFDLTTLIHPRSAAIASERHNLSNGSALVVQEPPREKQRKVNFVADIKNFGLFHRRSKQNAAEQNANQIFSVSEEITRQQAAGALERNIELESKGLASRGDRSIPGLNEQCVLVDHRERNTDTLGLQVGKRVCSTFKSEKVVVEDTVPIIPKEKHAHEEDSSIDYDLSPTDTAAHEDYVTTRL

[17] = Shn3 3'UTR reporter inhibitors, dose response, cell-based, Clone20 osteoblasts, firefly luciferase, cherry-picked (AID 624132); format: functional;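 also: firefly luciferase luminescence from reporter carrying the Shn3 3'UTR in osteoblasts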
[18] = control 3'UTR Renilla luciferase suppression, dose response, counter-screen for Shn3 inhibitor project, cell-based, Clone20-Shn3RL, cherry-picked (AID 624133); format: functional
[19] = P. falciparum Dd2 growth inhibitors, dose response, SYBR Green, cherry-picked samples (AID 1159567); format: functional, cell-based
[20] = cytotoxicity toward NIH3T3 fibroblasts, dose response, counter-screen, cell-based, ATP luminescence, mouse fibroblasts (AID 2010); format: functional; details: NIH3T3;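 also: cells exposed to compound for about 90 hours before reading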
[21] = target: Cytochrome P450 2C19 (Homo sapiens, UniProt P33261); assay: Cytochrome panel assay with activity outcomes. Panel member name: p450-cyp2c19 Compounds with AC50 equal or less than 10 uM are considered active; format: functional; details: read-out: AC50
[22] = inhibitors of intracellular T. cruzi replication, confirmation, NIH3T3 host cells, beta-gal luminescence (AID 2044); format: functional, cell-based;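 also: intracellular parasites grown in NIH/3T3 mouse fibroblasts as host cells; luminescent beta-galactosidase reporter signal from transgenic T. cruzi replicating inside host cells; inhibitors lower the luminescence signal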
[23] = target: Cytochrome P450 2C9 (Homo sapiens, UniProt P11712)
Sequence of Cytochrome P450 2C9 (P11712 whole entry): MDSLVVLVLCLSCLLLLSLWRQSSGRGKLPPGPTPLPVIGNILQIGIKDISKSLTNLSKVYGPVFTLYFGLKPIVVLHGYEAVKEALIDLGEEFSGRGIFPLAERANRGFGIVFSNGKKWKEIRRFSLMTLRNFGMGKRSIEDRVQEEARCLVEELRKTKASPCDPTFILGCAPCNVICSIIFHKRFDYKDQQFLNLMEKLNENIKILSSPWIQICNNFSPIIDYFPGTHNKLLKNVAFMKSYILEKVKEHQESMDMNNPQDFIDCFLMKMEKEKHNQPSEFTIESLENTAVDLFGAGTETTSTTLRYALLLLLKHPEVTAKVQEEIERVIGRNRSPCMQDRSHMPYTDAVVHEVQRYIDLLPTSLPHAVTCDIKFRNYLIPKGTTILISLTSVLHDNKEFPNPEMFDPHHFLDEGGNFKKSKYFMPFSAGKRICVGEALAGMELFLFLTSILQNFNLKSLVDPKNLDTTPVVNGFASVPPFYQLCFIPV

Sequence of Cytochrome P450 2C19 (P33261 whole entry): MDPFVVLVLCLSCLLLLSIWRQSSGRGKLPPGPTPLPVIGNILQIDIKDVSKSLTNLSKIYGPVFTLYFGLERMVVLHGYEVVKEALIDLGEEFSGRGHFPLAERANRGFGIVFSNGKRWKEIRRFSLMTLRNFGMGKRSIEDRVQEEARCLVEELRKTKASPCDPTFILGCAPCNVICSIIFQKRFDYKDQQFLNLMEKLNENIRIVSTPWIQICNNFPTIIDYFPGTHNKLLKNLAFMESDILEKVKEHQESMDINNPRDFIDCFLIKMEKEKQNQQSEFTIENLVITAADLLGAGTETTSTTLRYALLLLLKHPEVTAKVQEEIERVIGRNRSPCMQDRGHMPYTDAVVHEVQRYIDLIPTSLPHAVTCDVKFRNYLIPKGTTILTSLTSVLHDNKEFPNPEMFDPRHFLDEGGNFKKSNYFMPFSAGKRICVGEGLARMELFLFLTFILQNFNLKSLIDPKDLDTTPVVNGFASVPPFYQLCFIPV
Sequence of DNA dC->dU-editing enzyme APOBEC-3G (Q9HC16 whole entry): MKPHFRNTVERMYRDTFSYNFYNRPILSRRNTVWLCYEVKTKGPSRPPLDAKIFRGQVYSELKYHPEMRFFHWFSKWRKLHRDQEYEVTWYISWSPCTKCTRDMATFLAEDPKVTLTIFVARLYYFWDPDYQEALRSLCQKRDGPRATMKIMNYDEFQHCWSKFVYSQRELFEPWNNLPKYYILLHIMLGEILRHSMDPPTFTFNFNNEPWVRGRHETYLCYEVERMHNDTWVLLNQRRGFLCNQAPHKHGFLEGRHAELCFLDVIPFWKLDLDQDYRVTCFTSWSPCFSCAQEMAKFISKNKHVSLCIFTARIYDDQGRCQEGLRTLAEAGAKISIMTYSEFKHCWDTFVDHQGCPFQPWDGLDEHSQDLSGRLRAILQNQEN

Cc1cccc(C)c1NC(=O)CN(C)C(=O)c1ccc2nc[nH]c2c1
IC50 [1]: 28 µM (active)

Cc1ccc(C)c(OCCn2ccnc2)c1
IC50 [1]: 5.06 µM (active)

CCCc1cc(NC(=O)CCl)n(-c2ccccc2)n1
IC50 [2]: 4.55 µM (active) | EC50 [3]: > 150 µM (not active) | EC50 [4]: > 150 µM (not active) | IC50 [5]: > 20 µM (inactive) | CC50 [6]: 17.4 µM (active) | IC50 [7]: 11.1 µM (inactive) | EC50 [8]: 29.7 µM (active) | EC50 [9]: 14.3 µM (active) | EC50 [10]: > 150 µM (not active)

CCOc1ccc(C(=S)NC2CCCCC2)cc1OCC
IC50 [11]: 55.7 µM (active)

Cc1cc(NC(=O)c2ccccc2)sc1C
EC50 [12]: > 50 µM (active)

O=[N+]([O-])c1ccc2nc(S)sc2c1
EC50 [13]: 27.1 µM (active) | IC50 [14]: > 20 µM (inactive) | IC50 [15]: 7.04 µM (active)

O=C(CSc1nc(=O)n(CCN2CCOCC2)c2c1CCC2)Nc1ccc(OC(F)(F)F)cc1
EC50 [16]: 7.5 µM (active)

CC[C@]12c3[nH]c4cc(CCC(=O)N(C)C)ccc4c3CCN1C(=O)[C@@H](CC(=O)NC/C=C(\C)CCC=C(C)C)C[C@@H]2C(=O)N1CCN(C(=O)c2ccco2)CC1
AC50 [17]: 1.68 µM (active) | AC50 [18]: 1.72 µM (active)

Cc1noc(C)c1COC(=O)[C@@H](NC(=O)c1ccccc1)C(C)C
AC50 [18]: 52.5 µM (active)

C[C@H](CO)N1C[C@H](C)[C@H](CN(C)C(=O)Nc2ccc(-c3ccccc3)cc2)OCc2ccccc2-c2c(n(C)c3ccccc23)C1=O
AC50 [19]: 4.77 µM (active)

CCOC(=O)N/N=C\c1ccc([N+](=O)[O-])o1
EC50 [20]: > 30 µM (not active) | AC50 [21]: 25.1 µM (inconclusive) | EC50 [22]: 0.542 µM (active) | EC50 [12]: > 50 µM (active)

CN1c2ccc(C#Cc3cccnc3)cc2[C@@H]2[C@@H](CCN2S(=O)(=O)c2ccccc2F)[C@@H]1CO
AC50 [19]: 3.87 µM (active)

CCC(=O)N1CCC2(CC1)CN(Cc1cc(F)ccc1F)[C@@H](CO)c1[nH]c3cc(OC)ccc3c12
AC50 [19]: 4.19 µM (active)

Clc1cnc(Oc2ccc(Oc3ncc(Cl)cc3Cl)cc2)c(Cl)c1
EC50 [13]: > 53 µM (inactive) | IC50 [14]: 18 µM (active) | AC50 [23]: inconclusive | IC50 [15]: < 0.368 µM (active)
